Source: PMC4457633 (Bioorganic & medicinal chemistry letters, 2015)
Read-outs that look alike come from different tables or passages of the source.

Tests used:
VMAT-2 [1] = target: T1, VMAT-2 (Rattus norvegicus, UniProt Q01827); experiment: [3H]DA uptake at VMAT-2, isolated rat synaptic vesicle preparations; format: biochemical; conditions: for fold more potent inhibiting [3H]DA uptake at VMAT-2 compared to 16: compared to N-2,3-dihydroxypropyl derivative 16
[2] = qualitative; ref [15]; cited from earlier work
VMAT-2 [3] = target: T1, VMAT-2; conditions: read-out: [3H]DA uptake Ki; mean ± SEM; rat synaptic vesicles; ref [15]; cited from earlier work
VMAT-2 [4] = target: T1, VMAT-2; conditions: read-out: [3H]DTBZ Binding Ki; mean ± SEM; rat brain synaptic vesicles; ref [15]; cited from earlier work

T1 sequence (Q01827 whole entry): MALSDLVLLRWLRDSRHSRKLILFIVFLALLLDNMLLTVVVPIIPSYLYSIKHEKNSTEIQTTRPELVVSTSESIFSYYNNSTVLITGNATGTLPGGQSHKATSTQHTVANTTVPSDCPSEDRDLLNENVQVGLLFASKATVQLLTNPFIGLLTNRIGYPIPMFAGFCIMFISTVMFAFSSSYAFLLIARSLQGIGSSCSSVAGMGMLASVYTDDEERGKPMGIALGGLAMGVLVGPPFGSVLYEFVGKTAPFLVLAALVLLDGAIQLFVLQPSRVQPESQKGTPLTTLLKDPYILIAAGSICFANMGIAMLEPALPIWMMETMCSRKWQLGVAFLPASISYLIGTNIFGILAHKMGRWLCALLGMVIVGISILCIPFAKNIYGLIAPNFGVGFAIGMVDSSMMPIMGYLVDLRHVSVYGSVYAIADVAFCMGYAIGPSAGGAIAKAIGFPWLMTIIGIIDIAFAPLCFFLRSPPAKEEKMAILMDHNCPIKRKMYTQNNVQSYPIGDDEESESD

For `c1ccc2c(CC[C@H]3CCC[C@@H](CCc4ccnc5ccccc45)N3)ccnc2c1` [Compound 14], the “fold more potent inhibiting [3H]DA uptake at VMAT-2 compared to 16” value (“fold more potent inhibiting” below) (VMAT-2 [1]) was “about 6 fold”.
In the case of `c1cnc2ccc(CC[C@H]3CCC[C@@H](CCc4ccc5ncccc5c4)N3)cc2c1` [Compound 15], the “fold more potent inhibiting” value (VMAT-2 [1]) is reported as “about 6 fold”.
For `CN1[C@@H](CCc2ccnc3ccccc23)CCC[C@H]1CCc1ccnc2ccccc12` [Quinlobelane], the water solubility [2] is listed as “improved water solubility over lobelane and norlobelane”.
In the case of `c1ccc(CC[C@H]2CCC[C@@H](CCc3ccccc3)N2)cc1` [Norlobelane], the Ki (VMAT-2 [3]) is given as 0.043 ± 0.002 µM, the Ki (VMAT-2 [4]) is given as 2.31 ± 0.19 µM and the water solubility [2] is given as “less than optimal water-solubility”.
For `c1ccc2nc(CC[C@H]3CCC[C@@H](CCc4ccc5ccccc5n4)N3)ccc2c1` [Compound 13], the “fold more potent inhibiting” value (VMAT-2 [1]) was “about 6 fold”.
With `OC[C@H](O)CN1[C@@H](CCc2ccc3ccccc3n2)CCC[C@H]1CCc1ccc2ccccc2n1` [Compound 16] the “fold lower inhibitory potency than GZ-793A in vesicular [3H]DA uptake assay” value (VMAT-2 [1]; compared to GZ-793A (Ki = […] nM)) was 8 fold.
For `CN1[C@@H](CCc2ccccc2)CCC[C@H]1CCc1ccccc1` [Lobelane], the water solubility [2] is given as “less than optimal water-solubility”.
